What all share (assay type): cell-based
For one experiment, the system named is ICP27. Nature of the experiment: Western blot of ICP27 in HSV-1 infected microglia cells. The settings on record: for ICP27 expression: 1 μM C16, 24 hours. As to the method:
FIG. 12B depicts an electrophoresis gel showing total proteins that were harvested from G2O7 infected microglia cells at 24 hours post treatment with either 1 μM of C16, 1 μM of Bay11, or 100 μM of AG. ICP27, ICP4, and […] expression was measured by western blot assay. U87 and MG co-culture were pretreated with 0.5 μM of C16 for 1 hour.
FIG. 12C depicts an electrophoresis gel showing total proteins that were harvested from HrR3 or KOS infected microglia cells at 24 hours post-treatment with 1 μM of PKR-i (C16). ICP27, ICP4, and […] expression was measured by western blot assay. U87 and MG co-culture were pretreated with 0.5 μM of C16 for 1 hour.
Total protein was harvested with sample buffer (125 mM Tris-HCL, 50% Glycerol, […] and 5% 2-mercaptoethanol) and boiled for 5 minutes. Protein samples were subjected to SDS-PAGE (8% gel), transferred to nitrocellulose membranes and blocked in 5% nonfat milk (Bio Rad) in TBS-Tween 20 (TBS-T) for 1 hour at room temperature. The membranes were then incubated with primary antibody against β-actin at 1:1000 (Cell Signaling, Danvers, Mass.) or anti-STAT1 antibody at 1:1000 (Cell Signaling, Danvers, Mass.) or anti-STAT3 antibody at 1:1000 (Cell Signaling, Danvers, Mass.) or anti-phospho STAT1 antibody (Tyr701) at 1:1000 (Cell Signaling, Danvers, Mass.) or anti-phospho STAT3 antibody (Tyr705) at 1:1500 (Cell Signaling, Danvers, Mass.) or anti-phosphor-eIF2a antibody (ser51) at 1:1000 (Cell Signaling, Danvers, Mass.) or anti-ICP27 antibody at 1:1000 (Abcam, Cambridge, Mass.) or anti-ICP4 antibody at 1:750 (Abcam, Cambridge, Mass.) for overnight at 4° C. The membranes were washed the next day with TBS-T three times and incubated with corresponding secondary antibody at 1:3000 (Perkim Elmer, Boston, Mass.), for 1 hour at room temperature. Membranes were washed with TBS-T three times before visualization using ECL reagent (Perkim Elmer, Boston, Mass.) and VersaDoc imaging system (Bio-Rad). Band density was measured by using ImageJ software (NIH, Bethesda, Md.). […]
(In general: Immunoblotting shows a protein as a band on a membrane.)

Another experiment relates to BTUC cells. Put plainly: MTT cytotoxicity assay, BTUC cells. The settings on record: 72 hours, read-out: Inhibitory concentration 50% (IC50). The method, then:
FIGS. 1A-1B are graphs that show an anti-tumor effect of nifuroxazide. (FIG. 1A) Cells were treated with indicated concentration of nifuroxazide for 72 hours. Cytotoxicity was measured by using MTT assay. (FIG. 1B) Subcutaneously U87 tumor bearing mice were peritoneally injected with indicated doses of nifuroxazide. Tumor size was measured using calipers at day 7 post nifuroxazide treatment.
In this example, the antitumor effect of nifuroxazide is evaluated in different tumor cells. Cells were treated with nifuroxazide for 72 hours (FIG. 1A). […] To verify the anti-tumor efficacy of nifuroxazide in vivo, animals with subcutaneous U87 tumor implants were injected in the peritoneum with vehicle, 1 mg/kg nifuroxazide and 50 mg/kg nifuroxazide. […] Tumor volume was reduced around 25% and 60% after 7 days treatment with 1 mg/kg nifuroxazide and 50 mg/kg nifuroxazide respectively (FIG. 1B).
Cells were seeded in a 96-well plate at a density of 1×104 (U87). After overnight incubation, cells were treated with only vehicle or indicated MOI of virus or indicated concentration of drugs or reagents. After 2 to 3 days of treatment cell viability was measured by MTT assay (Sigma, Canada) according to the manufacturer's instruction. […] After overnight incubation with lysis buffer, cell viability was measured at 595 nm using a plate reader (Envision 2103 Multilabel reader, Perkin Elmer).
In general terms: Formazan colour is commonly taken as a measure of viable cells.

A further experiment addresses T1, STAT3 (Homo sapiens, UniProt P40763).
T1 construct: Extracted protein was then subjected to western blot assay; endogenous in cells; host or cells: U87 cells, with or without HrR3 infection
The method, then: (FIG. 5A) U87 cells were treated with HrR3 at a MOI of 5 and indicated concentration of nifuroxazide for 6 hours. Extracted protein was then subjected to western blot assay. (FIG. 5B) U87 cells were treated with indicated concentration of HrR3 or nifuroxazide or stattic or in combination for 72 hours. Cytotoxicity was measured by MTT assay. (FIG. 5C) Relative mRNA level (2^−ΔΔCT) is shown. Data are presented as mean SD, *P<0.05 vs corresponding vehicle treatment.
FIG. 19A and FIG. 19B, U87 cells (A) or CT26 cells (B) were treated with the indicated concentrations of HrR3 or NF or a combination. Total protein was extracted after 24 hours and subjected to western blot analysis. Band intensity was measured using Image J software and normalized to β-actin. Samples were run in triplicate and data are as means±S.E. Statistically significant differences are indicated by P<0.05 or P<0.01. FIG. 19C, Mice subcutaneously bearing U87 tumors were intratumorally injected with a single dose of HrR3 virus (1×10^6 PFU) and/or peritoneally injected doses of NF as indicated. Tumors were harvested on day 10 post treatment and total protein was extracted from a mouse of each treatment group and subjected to western blot analysis in triplicate. Results are reported as means±S.E.
Expression of key regulator of the Type1 interferon signaling, STAT1 and STAT3, was determined in nifuroxazide treated oHSV-1 infected U87 cells.
NF is a known inhibitor of STAT1 and STAT3. To evaluate the underlying molecular mechanism of the anti-tumour effect of the NF and oHSV-1 combination, the STAT1 and STAT3 status in U87 cells (FIG. 19A) and CT26 cells (FIG. 19B) cells was determined after an overnight treatment with NF and oncolytic viruses.

T1 sequence (P40763 whole entry): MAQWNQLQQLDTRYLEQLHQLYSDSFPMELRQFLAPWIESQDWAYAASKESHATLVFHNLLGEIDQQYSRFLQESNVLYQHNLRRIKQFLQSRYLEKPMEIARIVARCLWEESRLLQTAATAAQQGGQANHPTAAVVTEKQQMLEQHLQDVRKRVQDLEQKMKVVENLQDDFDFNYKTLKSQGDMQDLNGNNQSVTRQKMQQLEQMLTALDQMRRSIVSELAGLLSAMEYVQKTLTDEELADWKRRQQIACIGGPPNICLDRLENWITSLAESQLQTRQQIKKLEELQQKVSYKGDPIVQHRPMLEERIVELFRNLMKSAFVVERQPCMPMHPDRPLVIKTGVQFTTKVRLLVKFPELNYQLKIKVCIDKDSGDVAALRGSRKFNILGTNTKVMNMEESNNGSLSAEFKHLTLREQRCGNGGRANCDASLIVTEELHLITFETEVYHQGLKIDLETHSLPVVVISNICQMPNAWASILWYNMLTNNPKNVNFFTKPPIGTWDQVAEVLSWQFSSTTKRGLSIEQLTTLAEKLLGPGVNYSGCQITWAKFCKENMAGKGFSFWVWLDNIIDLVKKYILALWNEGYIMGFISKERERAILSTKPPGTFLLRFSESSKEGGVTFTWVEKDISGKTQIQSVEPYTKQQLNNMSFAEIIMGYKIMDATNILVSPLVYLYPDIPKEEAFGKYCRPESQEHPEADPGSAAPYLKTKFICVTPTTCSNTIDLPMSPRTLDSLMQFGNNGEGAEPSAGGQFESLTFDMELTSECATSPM

In the case of `O=C1Nc2ccc3ncsc3c2/C1=C/c1c[nH]cn1` [C16, 6,8-Dihydro-8-(1H-imidazol-5-ylmethylene)-7H-pyrrolo[2,3-g]benzothiazol-7-one], in the experiment on ICP27 (G207 infected, 1 μM C16, 1 μM Bay11 or 100 μM AG, 24 hours), the “upregulated expression of ICP27” value was determined as 25 fold. Also, the ICP27 expression result in the experiment on ICP27 (HrR3 infected BV2 cells) and with ICP27 (KOS infected BV2 cells) was “upregulated ICP27 expression” in each case.

For the compound `O=C(N/N=C/c1ccc([N+](=O)[O-])o1)c1ccc(O)cc1` [nifuroxazide, Benzoic acid, 4-hydroxy-, [(5-nitro-2-furanyl)metylene]hydrazide], the IC50 in the experiment with BTUC cells is roughly 15 µM. Besides, the “HrR3 induced upregulation of STAT3 phosphorylation” value on STAT3 (24 hours) was “effectively suppressed”. On STAT3 (HrR3 MOI of 5, 6 hours), the STAT3 phosphorylation result was “dose dependent STAT1 and STAT3 phosphorylation reduction”. On STAT3 (NF alone, 24 hours), the “phosphorylation of STAT3” value is listed as “dose dependent inhibition”.

For the origin of these results see patent publication US20190307820A1, “COMPOSITIONS AND METHODS OF USING STAT1/3 INHIBITORS WITH ONCOLYTIC HERPES VIRUS” (priority 2016, published 2019).
